From patent US11351221B2, “SMAC mimetic” (Medivir AB, priority 2009, dated 2022)
pIC50: −log10 of the molar value.

How the values were obtained:
XIAP = molecular target: T1, XIAP (Homo sapiens, UniProt P98170); experiment: Caspase-3 derepression assay; format: biochemical; details: MDA-MB-231 hypotonic lysate activated with cytochrome c and dATP; zDEVD-R110(2) substrate
T1 construct: endogenous in cells; host or cells: MDA-MB-231 (ATCC), soluble hypotonic lysate
Protocol: Cell pellet was washed one time by resuspending in 5 mL hypotonic lysis buffer (20 mM HEPES, pH7.5, 10 mM KCl, 1.5 mM MgCl2, 1.0 mM EDTA, 1.0 mM DTT) and recollected by centrifugation. Pellet was next resuspended in 1 volume of hypotonic lysis buffer supplemented with a complete protease inhibitor tablet (Roche) and allowed to swell on ice for 30 minutes. Cells were disrupted by approximately 50 passages through a 27 gauge needle. Lysis was monitored by light microscopy. Lysate was centrifuged at 12000×g for 10 minutes at 4° C. to remove membrane fraction, unlysed cells and debris. The soluble fraction was collected for protein concentration determination and subsequent assay analysis.
The hypotonic lysate (25 μg protein), 50 μg/mL cytochrome c and 10 mM dATP were combined in a microcentrifuge tube to a final volume of 9 μl in hypotonic lysis buffer followed by addition of test compound and incubated for 30 minutes at room temp. Following incubation 50 μl of hypotonic lysis buffer containing 5 μM of pro-fluorescent rhodamine-110(2) based caspase-3 substrate zDEVD-R110(2) was added and fluorescence intensity was monitored over time. Activation of the lysate by addition of cytochrome c and dATP results in apoptosome formation and subsequent activation of caspases-9 and -3.

cIAP-2 = molecular target: T2, cIAP-2 (Homo sapiens, UniProt Q13489); experiment: cIAP degradation assay (GFP-cIAP-2); format: cell-based; details: A375Gc2 cells, 2 h treatment, 50% of GFP signal inhibited (FACS); read-out: GFP-cIAP-2 IC50
T2 construct: expressed in transfected cells; host or cells: A375 (A375Gc2)
T2 sequence (Q13489 whole entry, species assumed): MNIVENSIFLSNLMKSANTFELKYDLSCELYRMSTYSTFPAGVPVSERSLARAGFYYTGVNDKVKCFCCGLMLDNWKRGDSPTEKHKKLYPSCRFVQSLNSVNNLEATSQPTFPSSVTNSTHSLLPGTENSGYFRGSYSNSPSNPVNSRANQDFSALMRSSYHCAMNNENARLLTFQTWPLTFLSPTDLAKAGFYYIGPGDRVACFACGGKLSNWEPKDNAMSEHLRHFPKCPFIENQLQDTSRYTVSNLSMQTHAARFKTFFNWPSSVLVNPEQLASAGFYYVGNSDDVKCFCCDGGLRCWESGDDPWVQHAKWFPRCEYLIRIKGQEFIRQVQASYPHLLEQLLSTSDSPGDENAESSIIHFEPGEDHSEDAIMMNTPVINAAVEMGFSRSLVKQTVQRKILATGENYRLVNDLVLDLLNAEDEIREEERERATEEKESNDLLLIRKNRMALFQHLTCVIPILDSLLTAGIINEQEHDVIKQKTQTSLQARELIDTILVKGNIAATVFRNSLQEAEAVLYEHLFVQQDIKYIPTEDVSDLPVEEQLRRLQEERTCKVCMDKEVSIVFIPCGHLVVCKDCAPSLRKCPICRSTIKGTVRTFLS
Protocol: (§1) The concentration inducing degradation of cIAP-1 and cIAP-2 by 50% (IC50) for various compounds was determined by monitoring the disappearance of Green Fluorescent Protein (GFP)-signal in A375 cells. Briefly, A375 cell lines expressing GFP-tagged cIAP-1 and cIAP-2 were generated by transfecting HA2xEGFP-pcDNA3 vector containing either cIAP-1 (A375Gc1) or cIAP-2 (A375Gc2) coding region. 2×10^4 of A375Gc1 or A375Gc2 cells were grown in 96-well plate and treated with various concentrations of test compounds for 2 h. After incubation, cells were collected by trypsinization and suspended in 150 μl of DMEM-10% FBS. A total of 10^4 cells were analyzed using a FACScan (Becton Dickinson). GFP fluorescence was monitored by using an excitation filter at 488 nm and emission was measured with a 530 nm filter. IC50 is defined as the concentration of drug at which 50% of GFP signal was inhibited.

[1] = system: SKOV-3 ovarian tumor cell; experiment: SKOV-3 cytotoxicity (MTT assay); format: cell-based; details: Homo sapiens, SK-OV-3 cells, 72 hrs, concentration giving 50% cell survival
Protocol: SKOV-3 ovarian tumor cell cytotoxicity data were generated substantially as follows. The MTT (3-(4,5-Dimethylthiazol-2-yl)-2,5-diphenyltetrazolium bromide) assay is an example of an assay that has been used for measuring cell growth as previously described (Hansen, M. B., Nielsen, S. E., and Berg, K. (1989) J. Immunol Methods 119, 203-210) and incorporated herein by reference in its entirety. Briefly, SK-OV-3 cells were seeded in 96-well plates in McCoy's medium containing 10% fetal bovine serum albumin (5,000 per well) and incubated overnight at 37° C. The next day, test compounds were added at various concentrations (0.003-10 μM) and the plates were incubated at 37° C. for an additional 72 hrs. This incubation time was optimal for measuring inhibitory effects of different analogs. Fifty microliters of 5 mg/mL MTT reagent to each well was added and the plates were incubated at 37° C. for 3 hours. At the end of the incubation period, 50 microliters of DMSO was added to each well to dissolve cells and the optical density (OD) of the wells was measured using a microplate reader (Victor^2 1420, Wallac, Finland) at 535 nm. Cell survival (CS) was calculated by the following equation: CS=(OD treated well/mean OD control wells)×100%
The CC50, defined as the drug concentration that results in 50% CS, was derived by calculating the point where the dose-response curve crosses the 50% CS point using GraphPad Prism.

cIAP-1 = molecular target: T3, cIAP-1 (Homo sapiens, UniProt Q13490); experiment: cIAP degradation assay (GFP-cIAP-1); format: cell-based; details: for DC50: A375Gc1 cells, 2 h treatment, 50% of GFP signal inhibited (FACS), read-out: GFP-cIAP-1 IC50; for IC50 Ratio cIAP-2/cIAP-1: ratio of GFP-cIAP-2 to GFP-cIAP-1 degradation IC50
T3 construct: expressed in transfected cells; host or cells: A375 (A375Gc1)
T3 sequence (Q13490 whole entry, species assumed): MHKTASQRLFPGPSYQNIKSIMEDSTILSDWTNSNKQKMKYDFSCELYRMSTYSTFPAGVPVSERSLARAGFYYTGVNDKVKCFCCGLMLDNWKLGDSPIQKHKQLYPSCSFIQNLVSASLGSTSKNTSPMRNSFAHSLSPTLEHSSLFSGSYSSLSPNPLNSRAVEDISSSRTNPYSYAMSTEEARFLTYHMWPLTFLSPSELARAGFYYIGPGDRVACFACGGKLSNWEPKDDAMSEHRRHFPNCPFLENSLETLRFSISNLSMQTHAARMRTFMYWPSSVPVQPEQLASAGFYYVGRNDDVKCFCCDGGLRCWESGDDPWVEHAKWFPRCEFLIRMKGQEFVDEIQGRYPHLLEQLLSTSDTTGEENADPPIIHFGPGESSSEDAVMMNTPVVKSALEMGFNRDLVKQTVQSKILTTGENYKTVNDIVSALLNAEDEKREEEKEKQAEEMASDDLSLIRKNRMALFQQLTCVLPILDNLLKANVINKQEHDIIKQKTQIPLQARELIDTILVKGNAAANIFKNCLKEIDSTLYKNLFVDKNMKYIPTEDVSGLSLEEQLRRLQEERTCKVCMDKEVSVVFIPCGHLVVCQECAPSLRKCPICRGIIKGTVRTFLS
Protocol: as §1, with “Briefly,” for “The concentration inducing degradation of cIAP-1 and cIAP-2 by 50% (IC50) for various compounds was determined by monitoring the disappearance of Green Fluorescent Protein (GFP)-signal in A375 cells. Briefly,”, “filter.” for “filter. IC50 is defined as the concentration of drug at which 50% of GFP signal was inhibited.”

[2] = format: in vivo; details: for Mortality: 3 mg/Kg, QDx4 i.v. bolus; for Bone marrow hypocellularity of the erythroid series (anatomic pathology) / Hypercellularity of the myeloid series (anatomic pathology) / Hypertrophy and hyperplasia of megakaryocytes (anatomic pathology) / Type 2 pneumocyte hypertrophy/hyperplasia in the lungs (anatomic pathology) / Clinical signs: 1 mg/kg/day
Excerpt: Body weight loss (BWL), mortality and additional toxicity data were generated substantially as follows. […] Body weights were taken on day 4 and are shown as percent change from day 1.

[3] = system: MDA-MB-231 human breast tumor cells; experiment: MDA-MB-231 xenograft tumor growth delay; format: in vivo, female nude mice
Protocol: MDA-MB-231 xenograft data were generated substantially as follows. MDA-MB-231 human breast tumor cells were injected into the mammary fat pad of female nude mice and dosing initiated twelve days later at an average tumor volume of approximately 148 mm^3. No tumor burden was associated with this model based on lack of weight loss or animal morbidity in control groups. Mice were injected subcutaneously into the mammary fat pad with 1×10^7 cells suspended in 200 μl of a 1:1 HBSS: Matrigel solution; injected cells were within nine passages of the original lot. Pre-study tumor volumes were recorded beginning approximately one week prior to the estimated start date. When tumors reached approximately 150 mm^3 animals are matched by tumor volume into treatment and control groups and dosing initiated (Day 0); mice are tagged and followed individually throughout the experiment. Animals were dosed by weight (0.01 mL per gram; 10 ml/Kg).
Beginning on Day 0, animals were observed daily and weighed twice weekly using a digital scale (Ohaus SP601); data including individual and mean gram weights (Mean We±SD), mean percent weight change versus Day 0 (% vD0) and mean percent weight change versus prior measurement (% vD−x) were recorded for each group and plotted at study completion.
Beginning on Day 0, tumor dimensions were measured twice weekly by digital caliper (Fowler Ultra-Cal IV) and data including individual and mean estimated tumor volumes (Mean TV±SEM) recorded for each group; tumor volume was calculated using the formula: TV=width^2×length×0.52. Individual mice reaching the designated study endpoint (an estimated tumor volume of approximately 1 cm^3) were assigned a time to endpoint (TTE) value corresponding to that day; the tumor growth delay (TGD) study was concluded once all mice reach the study endpoint or sixty days following study initiation. At study completion, TGD and % TGD are calculated using the median TTE (MTTE) value for each treatment (T) group versus control (C) by the formulas: TGD(days)=T−C and % TGD=T−C/C×100, wherein T−C is the difference between MTTE-Treatment Group and MTTE-Control. Tumored animals not reaching the designated volume endpoint by study completion are considered long-term survivors (LTS) and assigned a TTE value corresponding to the final study day; tumor-free animals are not included in TGD calculations. A Log-rank test is used to determine statistically significant differences in overall survival experience between each treated group compared to control. Individual mice reporting a tumor volume ≤50% of the Day 0 measurement for two consecutive measurements over a seven day period were considered partial responders (PR). If the PR persisted until study completion, percent tumor regression (% TR) was determined using the formula: % TR=1−Tf/Ti×100; a mean value was calculated if multiple PR mice occurred in one group. Individual mice lacking palpable tumors (<4×4 mm^2 for two consecutive measurements over a seven day period) were classified as complete responders (CR); a CR that persisted until study completion was considered a tumor-free survivor (TFS); TFS animals are excluded from TGD calculations and statistical analysis. Statistical differences in MTTE values between control and treatment groups are compared using a Log Rank test.

T1 sequence (P98170 whole entry): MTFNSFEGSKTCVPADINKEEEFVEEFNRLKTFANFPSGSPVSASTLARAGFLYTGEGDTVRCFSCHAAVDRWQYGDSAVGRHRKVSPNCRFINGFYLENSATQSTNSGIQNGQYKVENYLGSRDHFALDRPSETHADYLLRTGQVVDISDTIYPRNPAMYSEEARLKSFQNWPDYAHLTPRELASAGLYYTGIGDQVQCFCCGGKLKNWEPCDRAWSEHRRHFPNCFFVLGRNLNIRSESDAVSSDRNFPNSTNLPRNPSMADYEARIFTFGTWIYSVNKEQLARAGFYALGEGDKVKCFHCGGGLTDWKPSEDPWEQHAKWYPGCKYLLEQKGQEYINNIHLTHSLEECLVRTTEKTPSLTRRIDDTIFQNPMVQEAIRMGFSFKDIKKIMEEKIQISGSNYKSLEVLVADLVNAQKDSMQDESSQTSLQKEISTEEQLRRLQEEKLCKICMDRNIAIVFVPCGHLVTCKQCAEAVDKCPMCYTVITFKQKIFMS

SMILES | pIC50 (XIAP) | DC50 (cIAP-2) [nM] | CC50 [1] [nM] | DC50 (cIAP-1) [nM] | IC50 Ratio cIAP-2/cIAP-1 (cIAP-1) | Mortality ([2]; rat) | Bone marrow hypocellularity of the erythroid series (anatomic pathology) ([2]; rat, in vivo) | Hypercellularity of the myeloid series (anatomic pathology) ([2]; rat, in vivo) | Hypertrophy and hyperplasia of megakaryocytes (anatomic pathology) ([2]; rat, in vivo) | Type 2 pneumocyte hypertrophy/hyperplasia in the lungs (anatomic pathology) ([2]; rat, in vivo) | Clinical signs ([2]; rat, in vivo, iv) | further results
CN[C@@H](C)C(=O)N[C@H](C(=O)N1C[C@@H](O)C[C@H]1Cc1c(-c2[nH]c3cc(F)ccc3c2C[C@@H]2C[C@H](O)CN2C(=O)[C@@H](NC(=O)[C@H](C)NC)C(C)C)[nH]c2cc(F)ccc12)C(C)C [Compound 2] | 7.87 | 7 | 0.5 | 4 | 1.8 |  |  |  |  |  |  | 
CN[C@@H](C)C(=O)N[C@H](C(=O)N1C[C@@H](O)C[C@H]1Cc1c(-c2[nH]c3cc(F)ccc3c2C[C@@H]2C[C@H](O)CN2C(=O)[C@@H](NC(=O)[C@H](C)NC)[C@@H](C)O)[nH]c2cc(F)ccc12)[C@@H](C)O [Compound 3] | 9.70 | 674 | 13 | 328 | 2.1 |  |  |  |  |  |  | 
CN[C@@H](C)C(=O)N[C@H](C(=O)N1C[C@@H](O)C[C@H]1Cc1c(-c2[nH]c3cc(F)ccc3c2C[C@@H]2C[C@H](O)CN2C(=O)[C@@H](NC(=O)[C@H](C)NC)[C@H](C)O)[nH]c2cc(F)ccc12)[C@H](C)O [Compound 4] | 9.46 | 604 | 2 | 464 | 1.3 | caused the animals to die | marked to severe | mild to moderate | mild to moderate | mild to moderate | lethargy, increased/irregular respiration and increased heart rate | 
CN[C@@H](C)C(=O)N[C@H](C(=O)N1C[C@@H](O)C[C@H]1Cc1c(-c2[nH]c3cc(F)ccc3c2C[C@@H]2C[C@H](O)CN2C(=O)[C@@H](NC(=O)[C@H](C)NC)[C@@H](C)OC)[nH]c2cc(F)ccc12)[C@@H](C)OC [Compound 5] | 9.44 | 37 | 0.13 | 10 | 3.7 | caused the animals to die | marked to severe | mild to moderate | mild to moderate | mild to moderate | lethargy, increased/irregular respiration and increased heart rate | Additional clinical observations ([2]; rat, in vivo, 1 mg/kg): dehydration, ungroomed appearance, chromorhinorrhea, alopecia (head), and excessive scratching; Long-term survivors ([3]; 15 mg/Kg i.p., q3dx5): 3/10; Partial tumor regression ([3]; 15 mg/Kg i.p., q3dx5): five; T−C value (tumor growth delay) ([3]; 15 mg/Kg i.p., q3dx5): 21 days; Weight loss compared to mice dosed with Compound 15 at 20 mg/Kg ([3]; nude mice, 15 mg/Kg i.p., q3dx5): greater
CC[C@H](NC(=O)[C@H](C)NC)C(=O)N1C[C@@H](O)C[C@H]1Cc1c(-c2[nH]c3cc(F)ccc3c2C[C@@H]2C[C@H](O)CN2C(=O)[C@H](CC)NC(=O)[C@H](C)NC)[nH]c2cc(F)ccc12 [Compound 15, N-{1S-[2R-(6,6′-Difluoro-3′-{4S-hydroxy-1-[2S-(2S-methylamino-propionylamino)-butyryl]-pyrrolidin-2R-ylmethyl}-1H,1′H-[2,2′]biindolyl-3-ylmethyl)-4S-hydroxy-pyrrolidine-1-carbonyl]-propyl}-2S-methylamino-propionamide] |  | 174 | 0.14 |  |  |  |  |  |  |  |  | Tolerability in the rat as compared to Compounds 4 and 5, dose per dose ([2]; Sprague-Dawley, in vivo, iv, 4 days): approximately 5 fold; Long-term survivors ([3]; 20 mg/Kg i.p., q3dx5): 6/10; Partial tumor regression ([3]; 20 mg/Kg i.p., q3dx5): three; T−C value (tumor growth delay) ([3]; 20 mg/Kg i.p., q3dx5): 22 days; Long-term survivors ([3]; 40 mg/Kg i.p., q3dx5): 9/10; Partial tumor regression ([3]; 40 mg/Kg i.p., q3dx5): three; T−C value (tumor growth delay) ([3]; 40 mg/Kg i.p., q3dx5): 22 days; Long-term survivors ([3]; 60 mg/Kg i.p., q3dx5): 8/10; Partial tumor regression ([3]; 60 mg/Kg i.p., q3dx5): seven; T−C value (tumor growth delay) ([3]; 60 mg/Kg i.p., q3dx5): 22 days; Minimal effective dose ([3]; MDA-MB-231 xenograft model, subsequent studies): less than 1 mg/Kg
